For 9 compounds, Activity and IC50 results are on record in ChEMBL document CHEMBL5584297, “Cytotoxic Peptaibols from Trichoderma strigosum” (J Nat Prod, 2024).

Active and inactive are the calls of the source. No cut-off for these calls is given here. Square brackets hold non-standard residues; d marks the D form. Peptide text beside a SMILES is read from it. Leu(ol) = CC(C)C[C@H](N)CO; Aib = CC(C)(N)C(=O)O

The subject of one experiment is Fusarium oxysporum. Briefly: Antifungal activity against Fusarium oxysporum KCTC 16654. Format: functional, organism-based.
For a further experiment, the system named is MDA-MB-231. Briefly: Antiproliferative activity against human MDA-MB-231 cells assessed as reduction in cell viability incubated for 24 hrs by MTT assay. Format: functional, cell-based. Particulars: MDA-MB-231, 24 h.
For another experiment, the system named is HCT-116. Briefly: Antiproliferative activity against human HCT-116 cells assessed as reduction in cell viability incubated for 24 hrs by MTT assay. Format: functional, cell-based. The settings on record: HCT-116, 24 h. (In general: Tetrazolium assays rely on reduction of a dye to a coloured formazan, in cell work by metabolically active cells.)
In a further experiment the test system is [Candida] auris. Briefly: Antifungal activity against Candida auris. Format: functional, organism-based. Particulars: Candidozyma auris.
The test system of the next experiment is DU-145. Briefly: Antiproliferative activity against human DU-145 cells assessed as reduction in cell viability incubated for 24 hrs by MTT assay. Format: functional, cell-based. The settings on record: DU-145, 24 h.
For another experiment, the system named is Candida albicans. Briefly: Antifungal activity against Candida albicans. The format is functional, organism-based.
Another experiment has as its system SNU-449. In words: Antiproliferative activity against human SNU-449 cells assessed as reduction in cell viability incubated for 24 hrs by MTT assay. The format is functional, cell-based. Particulars: SNU-449, 24 h.
For a further experiment, the system named is SK-OV-3. Briefly: Antiproliferative activity against human SK-OV-3 cells assessed as reduction in cell viability incubated for 24 hrs by MTT assay. The format is functional, cell-based. Particulars: SK-OV-3, 24 h.

Take `CCCCCCCC(=O)NCC(=O)N[C@@H](C)C(=O)N[C@H](C(=O)N[C@](C)(CC)C(=O)N[C@@H](C)C(=O)N[C@@H](CC(C)C)C(=O)N[C@H](CO)CC(C)C)C(C)C`: the result (in the experiment with Fusarium oxysporum; in experiment [Candida] auris; in the experiment with Candida albicans) was inactive. The half-maximal inhibitory concentration (IC50) was found to be 11.5 µM in the experiment with MDA-MB-231; 8.9 µM in the experiment on HCT-116; 15.1 µM in the experiment on DU-145; 39 µM in the experiment with SNU-449; 47 µM in the experiment with SK-OV-3.

With `CCCCCCCC(=O)NCC(=O)N[C@@H](C)C(=O)N[C@@H](CC(C)C)C(=O)N[C@](C)(CC)C(=O)N[C@@H](C)C(=O)N[C@@H](CC(C)C)C(=O)N[C@H](CO)CC(C)C`, the outcome (with Fusarium oxysporum; in experiment [Candida] auris; in the experiment on Candida albicans) was inactive. The IC50 is 18.5 µM in the experiment on MDA-MB-231; 37.9 µM with HCT-116; 18.2 µM in the experiment on DU-145; 222 µM in the experiment on SNU-449; 50.3 µM with SK-OV-3.

For the compound `CC[C@H](C)[C@H](NC(=O)C(C)(C)NC(=O)C(C)(C)NC(=O)[C@H](C)NC(=O)C(C)(C)NC(C)=O)C(=O)N[C@@H](CCC(N)=O)C(=O)NC(C)(C)C(=O)NC(C)(C)C(=O)NC(C)(C)C(=O)N[C@@H](CO)C(=O)N[C@@H](CC(C)C)C(=O)NC(C)(C)C(=O)N1CCC[C@H]1C(=O)N[C@H](C(=O)NC(C)(C)C(=O)NC(C)(C)C(=O)N[C@@H](CCC(N)=O)C(=O)N[C@@H](CCC(N)=O)C(=O)N[C@H](CO)CC(C)C)C(C)C` (Ac-[Aib]A[Aib][Aib]IQ[Aib][Aib][Aib]SL[Aib]PV[Aib][Aib]QQ[Leu(ol)]), the result (in the experiment on Fusarium oxysporum; in experiment [Candida] auris; in the experiment with Candida albicans) was inactive. Besides, the IC50 in the experiment with MDA-MB-231 worked out at 2.3 µM; in the experiment on HCT-116 it was 3.2 µM; in the experiment with DU-145, 2.1 µM; in the experiment on SNU-449, 5.7 µM; in the experiment with SK-OV-3, 3.8 µM.

Turning to `CC[C@H](C)[C@H](NC(=O)C(C)(C)NC(=O)C(C)(C)NC(=O)[C@H](C)NC(=O)C(C)(C)NC(C)=O)C(=O)N[C@@H](CCC(N)=O)C(=O)NC(C)(C)C(=O)NC(C)(C)C(=O)NC(C)(C)C(=O)N[C@@H](CO)C(=O)N[C@H](C(=O)NC(C)(C)C(=O)N1CCC[C@H]1C(=O)N[C@H](C(=O)NC(C)(C)C(=O)NC(C)(C)C(=O)N[C@@H](CCC(N)=O)C(=O)N[C@@H](CCC(N)=O)C(=O)N[C@H](CO)CC(C)C)C(C)C)C(C)C` (Ac-[Aib]A[Aib][Aib]IQ[Aib][Aib][Aib]SV[Aib]PV[Aib][Aib]QQ[Leu(ol)]), the result (with Fusarium oxysporum; in experiment [Candida] auris; with Candida albicans) was inactive. Besides, the IC50 was 8.7 µM in the experiment on MDA-MB-231; 9 µM with HCT-116; 12.2 µM in the experiment with DU-145; more than 150 µM in the experiment with SNU-449; 26.7 µM in the experiment on SK-OV-3.

For `CC(=O)NC(C)(C)C(=O)N[C@@H](C)C(=O)NC(C)(C)C(=O)NC(C)(C)C(=O)N[C@@H](CC(C)C)C(=O)N[C@@H](CCC(N)=O)C(=O)NC(C)(C)C(=O)NC(C)(C)C(=O)NC(C)(C)C(=O)N[C@@H](CO)C(=O)N[C@@H](CC(C)C)C(=O)NC(C)(C)C(=O)N1CCC[C@H]1C(=O)N[C@H](C(=O)NC(C)(C)C(=O)NC(C)(C)C(=O)N[C@@H](CCC(N)=O)C(=O)N[C@@H](CCC(N)=O)C(=O)N[C@H](CO)CC(C)C)C(C)C` (Ac-[Aib]A[Aib][Aib]LQ[Aib][Aib][Aib]SL[Aib]PV[Aib][Aib]QQ[Leu(ol)]), the outcome (in the experiment with Fusarium oxysporum; in experiment [Candida] auris; in the experiment with Candida albicans) was inactive. Besides, the IC50 in the experiment on MDA-MB-231 amounted to 2.3 µM; in the experiment on HCT-116, 3.7 µM; in the experiment with DU-145, 4.4 µM; in the experiment with SNU-449 it was 10.4 µM; in the experiment on SK-OV-3, 4.1 µM.

As to `CC(=O)NC(C)(C)C(=O)N[C@@H](C)C(=O)NC(C)(C)C(=O)NC(C)(C)C(=O)N[C@@H](CC(C)C)C(=O)N[C@@H](CCC(N)=O)C(=O)NC(C)(C)C(=O)NC(C)(C)C(=O)NC(C)(C)C(=O)N[C@@H](CO)C(=O)N[C@H](C(=O)NC(C)(C)C(=O)N1CCC[C@H]1C(=O)N[C@H](C(=O)NC(C)(C)C(=O)NC(C)(C)C(=O)N[C@@H](CCC(N)=O)C(=O)N[C@@H](CCC(N)=O)C(=O)N[C@H](CO)CC(C)C)C(C)C)C(C)C` (Ac-[Aib]A[Aib][Aib]LQ[Aib][Aib][Aib]SV[Aib]PV[Aib][Aib]QQ[Leu(ol)]), the result (with Fusarium oxysporum; in experiment [Candida] auris; with Candida albicans) was inactive. Besides, the IC50 amounted to 7.2 µM in the experiment on MDA-MB-231; 8.7 µM in the experiment with HCT-116; 12 µM in the experiment on DU-145; 30.8 µM in the experiment with SNU-449; 11.9 µM with SK-OV-3.

Take `CC[C@H](C)[C@H](NC(=O)C(C)(C)NC(=O)C(C)(C)NC(=O)[C@H](CO)NC(=O)C(C)(C)NC(C)=O)C(=O)N[C@@H](CCC(N)=O)C(=O)NC(C)(C)C(=O)NC(C)(C)C(=O)NC(C)(C)C(=O)N[C@@H](CO)C(=O)N[C@@H](CC(C)C)C(=O)NC(C)(C)C(=O)N1CCC[C@H]1C(=O)N[C@H](C(=O)NC(C)(C)C(=O)NC(C)(C)C(=O)N[C@@H](CCC(N)=O)C(=O)N[C@@H](CCC(N)=O)C(=O)N[C@H](CO)CC(C)C)C(C)C` (Ac-[Aib]S[Aib][Aib]IQ[Aib][Aib][Aib]SL[Aib]PV[Aib][Aib]QQ[Leu(ol)]): the result (in the experiment with Fusarium oxysporum; in experiment [Candida] auris; with Candida albicans) was inactive. Further, the IC50 was 1 µM in the experiment on MDA-MB-231; 4.3 µM in the experiment on HCT-116; 2 µM in the experiment on DU-145; 11.3 µM in the experiment with SNU-449; 2.4 µM in the experiment on SK-OV-3.

Take `CC(=O)NC(C)(C)C(=O)N[C@@H](CO)C(=O)NC(C)(C)C(=O)NC(C)(C)C(=O)N[C@@H](CC(C)C)C(=O)N[C@@H](CCC(N)=O)C(=O)NC(C)(C)C(=O)NC(C)(C)C(=O)NC(C)(C)C(=O)N[C@@H](CO)C(=O)N[C@@H](CC(C)C)C(=O)NC(C)(C)C(=O)N1CCC[C@H]1C(=O)N[C@H](C(=O)NC(C)(C)C(=O)NC(C)(C)C(=O)N[C@@H](CCC(N)=O)C(=O)N[C@@H](CCC(N)=O)C(=O)N[C@H](CO)CC(C)C)C(C)C` (Ac-[Aib]S[Aib][Aib]LQ[Aib][Aib][Aib]SL[Aib]PV[Aib][Aib]QQ[Leu(ol)]): the result (in the experiment with Fusarium oxysporum; in experiment [Candida] auris; in the experiment on Candida albicans) was inactive. For the same compound, the IC50 in the experiment on MDA-MB-231 came to 2.5 µM; in the experiment with HCT-116 it was 4.4 µM; in the experiment with DU-145 it was 3.3 µM; in the experiment with SNU-449, 13 µM; in the experiment with SK-OV-3, 12.4 µM.

For the compound `COc1cccc2c1C(=O)c1c(O)c3c(c(O)c1C2=O)C[C@@](O)(C(=O)CO)C[C@@H]3O[C@H]1C[C@H](N)[C@H](O)[C@H](C)O1` [DOXORUBICIN], the outcome (in the experiment with Fusarium oxysporum; in experiment [Candida] auris; with Candida albicans) was inactive. Also, the IC50 with HCT-116 worked out at 73.6 µM; with DU-145, 91.2 µM; with SNU-449, 71.4 µM; in the experiment with SK-OV-3, 88.4 µM.

By IC50 is commonly meant the concentration at which inhibition is half-maximal.
